Data taken from ChEMBL document CHEMBL5038618, “Discovery of PT-65 as a highly potent and selective Proteolysis-targeting chimera degrader of GSK3 for treating Alzheimer's disease” (Eur J Med Chem, 2021).
The source made the active and inactive calls. The calls are words filed in the database; no cut-off is given here.

What was measured:
SH-SY5Y [1] = assay: Induction of apoptosis in human SH-SY5Y cells assessed as late apoptotic cells at 125 nM preincubated for 2 hrs followed by coincubation with Abeta42 and measured after 72 hrs by Annexin V-FITC/propidium iodide staining based flow cytometry (Rvb=3.5%); format: functional; conditions: time 74 hrs
SH-SY5Y [2] = assay: Induction of apoptosis in human SH-SY5Y cells assessed as live cells at 62.5 nM preincubated for 2 hrs followed by coincubation with Abeta42 and measured after 72 hrs by Annexin V-FITC/propidium iodide staining based flow cytometry (Rvb=94.8%); format: functional; conditions: time 74 hrs
[3] = target: T1, Protein cereblon/Glycogen synthase kinase-3 alpha (Homo sapiens, UniProt P49840+Q96SW2); assay: Protac activity at CRBN/GSK3alpha in human SH-SY5Y cells assessed as induction of GSK3alpha protein degradation measured after 24 hrs; format: cell-based
Target sequence in this assay (P49840 whole entry): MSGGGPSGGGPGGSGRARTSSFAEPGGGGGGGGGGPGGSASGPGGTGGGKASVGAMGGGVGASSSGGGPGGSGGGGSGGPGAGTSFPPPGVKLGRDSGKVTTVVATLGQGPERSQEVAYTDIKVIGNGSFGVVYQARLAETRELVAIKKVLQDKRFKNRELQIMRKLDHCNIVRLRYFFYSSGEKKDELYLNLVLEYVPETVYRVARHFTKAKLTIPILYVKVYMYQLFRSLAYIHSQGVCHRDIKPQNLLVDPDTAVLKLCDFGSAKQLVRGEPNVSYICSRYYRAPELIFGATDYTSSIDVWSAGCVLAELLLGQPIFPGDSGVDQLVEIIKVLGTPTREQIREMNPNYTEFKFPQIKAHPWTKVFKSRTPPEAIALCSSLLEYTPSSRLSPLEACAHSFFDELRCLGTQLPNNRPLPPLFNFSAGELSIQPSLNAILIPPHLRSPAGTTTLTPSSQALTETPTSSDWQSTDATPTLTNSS
Target sequence in this assay (Q96SW2 whole entry): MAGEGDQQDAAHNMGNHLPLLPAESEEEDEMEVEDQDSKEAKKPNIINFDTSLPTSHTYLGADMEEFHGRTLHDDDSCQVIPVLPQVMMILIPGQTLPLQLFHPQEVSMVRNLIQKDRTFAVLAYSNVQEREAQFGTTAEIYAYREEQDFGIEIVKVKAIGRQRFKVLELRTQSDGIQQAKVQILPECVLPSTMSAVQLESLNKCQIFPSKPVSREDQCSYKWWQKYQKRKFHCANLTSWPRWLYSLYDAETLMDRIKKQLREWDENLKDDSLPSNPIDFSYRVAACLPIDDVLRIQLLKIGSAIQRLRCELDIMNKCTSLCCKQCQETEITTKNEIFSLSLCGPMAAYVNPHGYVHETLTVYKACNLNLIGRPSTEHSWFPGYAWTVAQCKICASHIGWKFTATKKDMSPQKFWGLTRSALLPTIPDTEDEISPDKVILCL

Rattus norvegicus [4] = assay: Antialzheimer activity against hippocampal tissue of okadaic acid induced Sprague-Dawley rat assessed as reduction on GSK3alpha protein level at 200 to 600 uM, iv by immunohistochemical staining based analysis; format: functional, organism-based; conditions: Hippocampus, dose 200-600 µM
SH-SY5Y [5] = assay: Downregulation of GSK3beta expression in human SH-SY5Y cells at 62.5 to 500 nM pretreated for 2 hrs followed by Abeta42 coincubation for 72 hrs by Westernblot analysis; format: functional, cell-based; conditions: dose 62.5-500 nM, time 74.0 hrs
Rattus norvegicus [6] = assay: Antialzheimer activity against hippocampal tissue of okadaic acid induced Sprague-Dawley rat assessed as reduction on GSK3beta protein level at 200 to 600 uM, iv by immunohistochemical staining based analysis; format: functional, organism-based; conditions: Hippocampus, dose 200-600 µM
SH-SY5Y [7] = assay: Effect on tau protein expression in human SH-SY5Y cells assessed as reduction on phosphorylated tau threonine205 residue level at 62.5 to 500 nM pretreated for 2 hrs followed by Abeta42 coincubation for 72 hrs by Westernblot analysis; format: functional, cell-based; conditions: dose 62.5-500 nM, time 74.0 hrs
Rattus norvegicus [8] = assay: Antialzheimer activity against okadaic acid induced Sprague-Dawley rat assessed as reduction in escape latency time to hidden platform at 200 to 600 uM, iv measured upto 5 days by Morris water maze test; format: functional, organism-based; conditions: dose 200-600 µM, time day <=5
[9] = target: T2, Protein cereblon/Glycogen synthase kinase-3 beta (Homo sapiens, UniProt P49841+Q96SW2); assay: Protac activity at CRBN/GSK3beta in human SH-SY5Y cells assessed as induction of GSK3beta degradation at 1 uM measured after 24 hrs; format: cell-based
SH-SY5Y [10] = assay: Induction of apoptosis in human SH--SY5Y cells assessed as late apoptotic cells at 250 nM preincubated for 2 hrs followed by coincubation with Abeta42 and measured after 72 hrs by Annexin V-FITC/propidium iodide staining based flow cytometry (Rvb=3.5%); format: functional; conditions: time 74 hrs
[11] = target: T1, Protein cereblon/Glycogen synthase kinase-3 alpha; assay: Protac activity at CRBN/GSK3alpha in human SH-SY5Y cells assessed as induction of GSK3alpha degradation at 0.1 uM measured after 24 hrs; format: cell-based
Target sequence in this assay (P49840 2-483 limits assumed): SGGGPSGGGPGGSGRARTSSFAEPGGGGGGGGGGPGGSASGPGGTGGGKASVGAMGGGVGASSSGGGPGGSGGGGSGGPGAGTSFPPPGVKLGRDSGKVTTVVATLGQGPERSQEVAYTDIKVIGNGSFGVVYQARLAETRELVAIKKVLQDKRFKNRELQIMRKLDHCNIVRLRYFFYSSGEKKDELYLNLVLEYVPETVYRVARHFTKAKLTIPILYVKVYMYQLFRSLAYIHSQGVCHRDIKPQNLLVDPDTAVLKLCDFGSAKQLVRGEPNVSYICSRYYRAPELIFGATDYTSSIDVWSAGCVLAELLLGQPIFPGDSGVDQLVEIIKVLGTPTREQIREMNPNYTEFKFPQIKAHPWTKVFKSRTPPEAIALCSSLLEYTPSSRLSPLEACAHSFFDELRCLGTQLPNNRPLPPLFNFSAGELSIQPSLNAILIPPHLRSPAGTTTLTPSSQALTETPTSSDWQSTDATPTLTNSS
Target sequence in this assay (Q96SW2 whole entry partner): as the sequence (Q96SW2 whole entry) above

[12] = target: T2, Protein cereblon/Glycogen synthase kinase-3 beta; assay: Protac activity at CRBN/GSK3beta in human SH-SY5Y cells assessed as GSK3beta degradation at 1 uM pretreated with MG-132 for 2 hrs followed by compound addition and measured after 24 hrs; format: cell-based
[13] = Downregulation of GSK3beta expression in human SH-SY5Y cells accessed as fold change in GSK3beta expression at 1 uM measured after 4 hrs by proteomic analysis; format: functional
[14] = target: T2, Protein cereblon/Glycogen synthase kinase-3 beta; assay: Protac activity at CRBN/GSK3beta in human SH-SY5Y cells assessed as induction of GSK3beta degradation at 0.1 uM measured after 24 hrs; format: cell-based
[15] = target: Glycogen synthase kinase-3 alpha (Homo sapiens) (UniProt P49840); assay: Induction of GSK3alpha degradation in human SH-SY5Y cells assessed as recovery of GSK3alpha protein pretreated for 12 hrs followed by compound washout and measured upto 36 hrs by western blot assay; format: cell-based; conditions: time 48.0 hrs
[16] = target: T2, Protein cereblon/Glycogen synthase kinase-3 beta; assay: Protac activity at CRBN/GSK3beta in human SH-SY5Y cells assessed as GSK3beta degradation at 1 uM pretreated with pomalidomide for 2 hrs followed by compound addition and measured after 24 hrs; format: cell-based
SH-SY5Y [17] = assay: Induction of apoptosis in human SH-SY5Y cells assessed as early apoptotic cells at 250 nM preincubated for 2 hrs followed by coincubation with Abeta42 and measured after 72 hrs by Annexin V-FITC/propidium iodide staining based flow cytometry (Rvb=1%); format: functional; conditions: time 74 hrs
SH-SY5Y [18] = assay: Downregulation of GSK3alpha expression in human SH-SY5Y cells at 62.5 to 500 nM pretreated for 2 hrs followed by Abeta42 coincubation for 72 hrs by Westernblot analysis; format: functional, cell-based; conditions: dose 62.5-500 nM, time 74.0 hrs
Rattus norvegicus [19] = assay: Antialzheimer activity against hippocampal tissue of okadaic acid induced Sprague-Dawley rat assessed as reduction on tau protein level at 200 to 600 uM, iv by western blot assay; format: functional, organism-based; conditions: Hippocampus, dose 200-600 µM
SH-SY5Y [20] = assay: Induction of apoptosis in human SH-SY5Y cells assessed as necrotic cells at 62.5 nM preincubated for 2 hrs followed by coincubation with Abeta42 and measured after 72 hrs by Annexin V-FITC/propidium iodide staining based flow cytometry (Rvb=0.7%); format: functional; conditions: time 74 hrs
SH-SY5Y [21] = assay: Induction of apoptosis in human SH-SY5Y cells assessed as late apoptotic cells at 62.5 nM preincubated for 2 hrs followed by coincubation with Abeta42 and measured after 72 hrs by Annexin V-FITC/propidium iodide staining based flow cytometry (Rvb=3.5%); format: functional; conditions: time 74 hrs
SH-SY5Y [22] = assay: Induction of apoptosis in human SH-SY5Y cells assessed as necrotic cells at 125 nM preincubated for 2 hrs followed by coincubation with Abeta42 and measured after 72 hrs by Annexin V-FITC/propidium iodide staining based flow cytometry (Rvb=0.7%); format: functional; conditions: time 74 hrs
[23] = target: T1, Protein cereblon/Glycogen synthase kinase-3 alpha; assay: Protac activity at CRBN/GSK3alpha in human SH-SY5Y cells assessed as GSK3alpha degradation at 1 uM pretreated with MG-132 for 2 hrs followed by compound addition and measured after 24 hrs; format: cell-based
Target sequence in this assay (P49840 2-483 limits assumed): as the sequence (P49840 2-483 limits assumed) above
Target sequence in this assay (Q96SW2 whole entry partner): as the sequence (Q96SW2 whole entry) above

[24] = target: T3, Glycogen synthase kinase-3 beta (Homo sapiens, UniProt P49841); conditions: dose microM <=0.00975
Target sequence in this assay (P49841 whole entry, looked up): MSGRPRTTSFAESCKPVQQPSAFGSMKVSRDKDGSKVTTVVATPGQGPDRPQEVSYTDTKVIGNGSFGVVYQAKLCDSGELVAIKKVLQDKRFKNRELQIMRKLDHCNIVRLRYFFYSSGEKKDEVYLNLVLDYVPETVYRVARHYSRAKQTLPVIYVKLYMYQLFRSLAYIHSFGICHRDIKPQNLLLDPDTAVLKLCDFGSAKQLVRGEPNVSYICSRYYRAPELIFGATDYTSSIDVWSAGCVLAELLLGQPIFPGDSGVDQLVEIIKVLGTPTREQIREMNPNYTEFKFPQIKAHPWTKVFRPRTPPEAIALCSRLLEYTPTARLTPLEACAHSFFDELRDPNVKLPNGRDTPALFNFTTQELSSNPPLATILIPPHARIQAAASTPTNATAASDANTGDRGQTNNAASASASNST
Description: Binding affinity to recombinant GSK3beta (unknown origin) assessed as association rate constant upto 0.00975 uM by SPR analysis

Rattus norvegicus [25] = assay: Improvement in learning and spatial memory in okadaic acid induced Sprague-Dawley rat assessed as increase in time spent in target quadrant at 200 to 600 uM, iv measured after 6 days by Morris water maze test; format: functional, organism-based; conditions: dose 200-600 µM, time 6.0 day
SH-SY5Y [26] = assay: Induction of GSK3beta degradation in human SH-SY5Y cells assessed as recovery of GSK3beta protein pretreated for 12 hrs followed by compound washout and measured upto 36 hrs by western blot assay; format: cell-based; conditions: time 48.0 hrs
[27] = target: T3, Glycogen synthase kinase-3 beta; assay: Binding affinity to recombinant GSK3beta (unknown origin) assessed as dissociation […] constant upto 0.00975 uM by SPR analysis
Target sequence in this assay (P49841 whole entry): as the sequence (P49841 whole entry, looked up) above

[28] = target: T1, Protein cereblon/Glycogen synthase kinase-3 alpha; assay: Protac activity at CRBN/GSK3alpha in human SH-SY5Y cells assessed as induction of GSK3alpha protein degradation at 1 uM measured after 24 hrs; format: cell-based
Target sequence in this assay (P49840 2-483 limits assumed): as the sequence (P49840 2-483 limits assumed) above
Target sequence in this assay (Q96SW2 whole entry partner): as the sequence (Q96SW2 whole entry) above

SH-SY5Y [29] = assay: Induction of apoptosis in human SH-SY5Y cells assessed as necrotic cells at 250 nM preincubated for 2 hrs followed by coincubation with Abeta42 and measured after 72 hrs by Annexin V-FITC/propidium iodide staining based flow cytometry (Rvb=0.7%); format: functional; conditions: time 74 hrs
SH-SY5Y [30] = assay: Cytotoxicity against human SH-SY5Y cells assessed as increase in cell viability at 62.5 to 250 nM pretreated for 2 hrs followed by Abeta42 addition and measured after 72 hrs by CCK8 assay; format: functional, cell-based; conditions: dose 62.5-250 nM, time 74.0 hrs

T2 sequence (P49841 whole entry, looked up): as the sequence (P49841 whole entry, looked up) above
T2 sequence (Q96SW2 whole entry, looked up): as the sequence (Q96SW2 whole entry) above
Chain of Glycogen synthase kinase-3 alpha (Homo sapiens) (P49840 2-483 limits assumed): as the sequence (P49840 2-483 limits assumed) above

With `Nc1ncc(-c2ccc(S(=O)(=O)N3CCN(CCCCc4cn(CCOCCOCCOCCOCCOCCNc5cccc6c5C(=O)N(C5CCC(=O)NC5=O)C6=O)nn4)CC3)cc2)nc1C(=O)Nc1cccnc1` (stereo not given) the Activity (SH-SY5Y [1]) was 12.5%, the Activity (SH-SY5Y [2]) was 79% and the DC50 [3] was 28.3 nM. For the same compound, the Activity (Rattus norvegicus [4]) was “Active”, the Activity (SH-SY5Y [5]) was “Dose-Dependent Effect” and the Activity (Rattus norvegicus [6]) was “Active”. For the same compound, the Activity (SH-SY5Y [7]) was “Dose-Dependent Effect”, the Activity (Rattus norvegicus [8]) was “inactive” and the Activity [9] was 90.8%. The Activity (SH-SY5Y [10]) was 6.5%, the Activity [11] was 74.4% and the Activity [12] was “inactive”. For the same compound, the “fold change (FC)” value [13] was 0.33, the Activity [14] was 67.1% and the Activity [15] was “Active”. The Activity [16] was “inactive”, the Activity (SH-SY5Y [17]) was 1.2% and the Activity (SH-SY5Y [18]) was “Dose-Dependent Effect”. For the same compound, the Activity (Rattus norvegicus [19]) was “Active”, the Activity (SH-SY5Y [20]) was 6.7% and the Activity (SH-SY5Y [21]) was 14.3%. For the same compound, the Activity (SH-SY5Y [22]) was 3.3%, the Activity [23] was “inactive” and the Ka [24] was 2.04 10^6/Ms. The Activity (Rattus norvegicus [25]) was “Active”, the Activity (SH-SY5Y [26]) was “Active” and the Kd [27] was 0.0253 s⁻¹. For the same compound, the Activity [28] was 94.3%, the Activity (SH-SY5Y [29]) was 2.8% and the Activity (SH-SY5Y [30]) was “inactive”.
